{"source": "the Kinase Knowledgebase extract (Sharma et al. 2016)"}
{"target": "EGFR (human) (UniProt P00533)", "sequence (P00533 whole entry, looked up)": "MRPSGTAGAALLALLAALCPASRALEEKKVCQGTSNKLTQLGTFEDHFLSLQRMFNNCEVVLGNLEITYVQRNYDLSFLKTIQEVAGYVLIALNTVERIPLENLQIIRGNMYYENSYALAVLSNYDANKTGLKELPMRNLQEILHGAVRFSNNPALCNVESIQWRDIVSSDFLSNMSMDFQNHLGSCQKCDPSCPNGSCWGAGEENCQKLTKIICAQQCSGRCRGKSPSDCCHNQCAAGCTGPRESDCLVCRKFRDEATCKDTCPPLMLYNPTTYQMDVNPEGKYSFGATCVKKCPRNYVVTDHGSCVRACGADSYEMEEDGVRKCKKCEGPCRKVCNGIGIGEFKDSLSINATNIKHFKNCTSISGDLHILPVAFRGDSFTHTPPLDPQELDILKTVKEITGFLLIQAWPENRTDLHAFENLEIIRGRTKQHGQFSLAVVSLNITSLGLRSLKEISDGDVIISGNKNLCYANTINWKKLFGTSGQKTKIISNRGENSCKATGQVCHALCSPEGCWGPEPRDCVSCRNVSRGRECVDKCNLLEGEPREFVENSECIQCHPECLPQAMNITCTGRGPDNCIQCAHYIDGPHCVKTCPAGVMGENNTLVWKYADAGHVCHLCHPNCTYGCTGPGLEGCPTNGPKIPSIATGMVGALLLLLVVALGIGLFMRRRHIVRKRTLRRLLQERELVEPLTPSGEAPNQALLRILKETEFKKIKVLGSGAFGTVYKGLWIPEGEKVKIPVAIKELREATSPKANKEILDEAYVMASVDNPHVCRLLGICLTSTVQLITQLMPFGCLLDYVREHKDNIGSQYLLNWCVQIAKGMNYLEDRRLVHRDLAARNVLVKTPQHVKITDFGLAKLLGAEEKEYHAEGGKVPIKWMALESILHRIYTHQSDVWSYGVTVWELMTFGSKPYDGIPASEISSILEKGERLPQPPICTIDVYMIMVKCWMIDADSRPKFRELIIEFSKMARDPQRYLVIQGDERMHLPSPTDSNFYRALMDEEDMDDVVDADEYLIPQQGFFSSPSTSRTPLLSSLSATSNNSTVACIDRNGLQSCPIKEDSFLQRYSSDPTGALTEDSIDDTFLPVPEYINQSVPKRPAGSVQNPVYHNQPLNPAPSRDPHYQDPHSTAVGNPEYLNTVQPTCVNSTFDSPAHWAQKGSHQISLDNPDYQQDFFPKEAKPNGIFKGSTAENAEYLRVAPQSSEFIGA", "details": "kb", "units": {"IC50": "nM"}}
{"compound": "NCC1CCC(CNc2ncc3ncnc(Nc4ccc(F)c(Cl)c4)c3n2)CC1", "note": "(stereo not drawn)", "IC50": "100 to 1000"}
{"compound": "COC(=O)N1CCC(Nc2ncc3ncnc(Nc4ccc(F)c(Cl)c4)c3n2)CC1", "IC50": "100 to 1000"}
{"compound": "Nc1c(Cl)cc(Nc2ncnc3cnc(N[C@H]4CC[C@H](C(=O)N5CCOCC5)CC4)nc23)cc1Cl", "IC50": "100 to 1000"}
{"compound": "Nc1c(Cl)cc(Nc2ncnc3cnc(N[C@H]4CC[C@H](C(=O)O)CC4)nc23)cc1Cl", "IC50": "100 to 1000"}
{"compound": "Fc1ccc(Nc2ncnc3cnc(NC4CN5CCC4CC5)nc23)cc1Cl", "note": "(stereo not drawn)", "IC50": "100 to 1000"}
{"compound": "Nc1c(Cl)cc(Nc2ncnc3cnc(N[C@H]4CC[C@H](C(=O)N5CCCC5)CC4)nc23)cc1Cl", "IC50": "100 to 1000"}
{"compound": "CC(CN1CCCCC1)Nc1ncc2ncnc(Nc3ccc(F)c(Cl)c3)c2n1", "note": "(stereo not drawn)", "IC50": "100 to 1000"}
{"compound": "Fc1ccc(Nc2ncnc3cnc(N4CCC(C5CCNCC5)CC4)nc23)cc1Cl", "IC50": "100 to 1000"}
{"compound": "CCN(CC)CC(C)Nc1ncc2ncnc(Nc3ccc(F)c(Cl)c3)c2n1", "note": "(stereo not drawn)", "IC50": "100 to 1000"}
{"compound": "NCC1CCN(c2ncc3ncnc(Nc4ccc(F)c(Cl)c4)c3n2)CC1", "IC50": "100 to 1000"}
{"target": "EGFR (murine) (UniProt P00533)", "sequence (P00533 whole entry, looked up)": "as above", "details": "f/l herc cells", "units": {"IC50": "nM"}}
{"compound": "NCC1CCCC(CNc2ncc3ncnc(Nc4ccc(F)c(Cl)c4)c3n2)C1", "note": "(stereo not drawn)", "IC50": "> 1"}
{"compound": "CC(N)CNc1ncc2ncnc(Nc3ccc(F)c(Cl)c3)c2n1", "note": "(stereo not drawn)", "IC50": "> 10"}
{"compound": "O=CNC1CCN(c2ncc3ncnc(Nc4ccc(F)c(Cl)c4)c3n2)CC1", "IC50": "> 10"}
{"compound": "O[C@H]1CC[C@H](Nc2ncc3ncnc(Nc4ccc(-c5ccccc5)cc4)c3n2)CC1", "IC50": "> 10"}
{"compound": "Fc1ccc(Nc2ncnc3cnc(N4CCC(N5CCOCC5)CC4)nc23)cc1Cl", "IC50": "> 20"}
{"compound": "CCN(CCO)c1ncc2ncnc(Nc3ccc(F)c(Cl)c3)c2n1", "IC50": "> 1"}
{"compound": "NCCNc1ncc2ncnc(Nc3ccc(F)c(Cl)c3)c2n1", "IC50": "> 10"}
{"compound": "Nc1c(Br)cc(Nc2ncnc3cnc(N4CCC(N)CC4)nc23)cc1Br", "IC50": "> 1"}
{"compound": "NC[C@H]1CC[C@H](Nc2ncc3ncnc(Nc4ccc(F)c(Cl)c4)c3n2)CC1", "IC50": "> 1"}
{"compound": "COC(=O)NC1CCN(c2ncc3ncnc(Nc4ccc(F)c(Cl)c4)c3n2)CC1", "IC50": "> 10"}
{"compound": "NCCCCCNc1ncc2ncnc(Nc3ccc(F)c(Cl)c3)c2n1", "IC50": "> 1"}
{"compound": "NCC1CCC(CNc2ncc3ncnc(Nc4ccc(F)c(Cl)c4)c3n2)CC1", "note": "(stereo not drawn)", "IC50": "> 1"}
{"compound": "NC1CCCN(c2ncc3ncnc(Nc4ccc(F)c(Cl)c4)c3n2)CC1", "note": "(stereo not drawn)", "IC50": "> 1"}
{"compound": "Fc1ccc(Nc2ncnc3cnc(NC4CCCN(Cc5ccccc5)CC4)nc23)cc1Cl", "note": "(stereo not drawn)", "IC50": "> 1"}
{"compound": "Fc1ccc(Nc2ncnc3cnc(NC4CCCNCC4)nc23)cc1Cl", "note": "(stereo not drawn)", "IC50": "> 1"}
{"compound": "Fc1ccc(Nc2ncnc3cnc(N4CCCNCC4)nc23)cc1Cl", "IC50": "> 10"}
{"compound": "N#CN1CCC(Nc2ncc3ncnc(Nc4ccc(F)c(Cl)c4)c3n2)CC1", "IC50": "> 1"}
{"compound": "Nc1cc(Cl)c(Nc2ncnc3cnc(N[C@H]4CC[C@H](O)CC4)nc23)cc1Cl", "IC50": "> 10"}
{"compound": "COC(=O)[C@H]1CC[C@H](Nc2ncc3ncnc(Nc4ccc(F)c(Cl)c4)c3n2)CC1", "IC50": "> 10"}
{"compound": "CC(C)(C)OC(=O)N1CCCC(Nc2ncc3ncnc(Nc4ccc(F)c(Cl)c4)c3n2)CC1", "note": "(stereo not drawn)", "IC50": "> 10"}
{"compound": "COC(=O)N1CCC(Nc2ncc3ncnc(Nc4ccc(F)c(Cl)c4)c3n2)CC1", "IC50": "> 10"}
{"compound": "Nc1c(Cl)cc(Nc2ncnc3cnc(N[C@H]4CC[C@H](C(=O)N5CCOCC5)CC4)nc23)cc1Cl", "IC50": "> 1"}
{"compound": "NCC1CCCN(c2ncc3ncnc(Nc4ccc(F)c(Cl)c4)c3n2)C1", "note": "(stereo not drawn)", "IC50": "> 1"}
{"compound": "COC(CNc1ncc2ncnc(Nc3ccc(F)c(Cl)c3)c2n1)OC", "IC50": "> 20"}
{"compound": "Nc1c(Cl)cc(Nc2ncnc3cnc(N[C@H]4CC[C@H](C(=O)O)CC4)nc23)cc1Cl", "IC50": "> 1"}
{"compound": "Fc1ccc(Nc2ncnc3cnc(NC4CN5CCC4CC5)nc23)cc1Cl", "note": "(stereo not drawn)", "IC50": "> 10"}
{"compound": "COC(=O)[C@H]1CC[C@H](Nc2ncc3ncnc(Nc4cc(Cl)c(N)c(Cl)c4)c3n2)CC1", "IC50": "> 10"}
{"compound": "Fc1ccc(Nc2ncnc3cnc(N4CCCCC4)nc23)cc1Cl", "IC50": "> 1"}
{"compound": "Nc1c(Cl)cc(Nc2ncnc3cnc(N[C@H]4CC[C@H](C(=O)N5CCCC5)CC4)nc23)cc1Cl", "IC50": "> 1"}
{"compound": "NCCCNc1ncc2ncnc(Nc3ccc(F)c(Cl)c3)c2n1", "IC50": "> 10"}
{"compound": "CC(CN1CCCCC1)Nc1ncc2ncnc(Nc3ccc(F)c(Cl)c3)c2n1", "note": "(stereo not drawn)", "IC50": "> 1"}
{"compound": "O=C(N[C@H]1CC[C@H](CNc2ncc3ncnc(Nc4ccc(F)c(Cl)c4)c3n2)CC1)OCc1ccccc1", "IC50": "> 10"}
{"compound": "CC(C)(N)CNc1ncc2ncnc(Nc3ccc(F)c(Cl)c3)c2n1", "IC50": "> 10"}
{"compound": "COc1cccc(N2CCN(c3ncc4ncnc(Nc5ccc(F)c(Cl)c5)c4n3)CC2)c1", "IC50": "> 20"}
{"compound": "CN1CCC(N(C)c2ncc3ncnc(Nc4ccc(F)c(Cl)c4)c3n2)CC1", "IC50": 10}
{"compound": "Nc1ccc(CNc2ncc3ncnc(Nc4ccc(F)c(Cl)c4)c3n2)cc1", "IC50": "> 10"}
{"compound": "CN1CCCN(c2ncc3ncnc(Nc4ccc(F)c(Cl)c4)c3n2)CC1", "IC50": "> 10"}
{"compound": "OCc1cccc(Nc2ncnc3cnc(N[C@H]4CC[C@H](O)CC4)nc23)c1", "IC50": "> 1"}
{"compound": "CC(C)(C)OC(=O)N1CCC(CNc2ncc3ncnc(Nc4ccc(F)c(Cl)c4)c3n2)CC1", "IC50": "> 20"}
{"compound": "Fc1ccc(Nc2ncnc3cnc(N4CCCCCC4)nc23)cc1Cl", "IC50": "> 1"}
{"compound": "Fc1ccc(Nc2ncnc3cnc(NCC4CCNCC4)nc23)cc1Cl", "IC50": "> 20"}
{"compound": "COc1ccccc1N1CCN(c2ncc3ncnc(Nc4ccc(F)c(Cl)c4)c3n2)CC1", "IC50": "> 20"}
{"compound": "CC(C)(C)OC(=O)N1CCN(CCNc2ncc3ncnc(Nc4ccc(F)c(Cl)c4)c3n2)CC1", "IC50": "> 1"}
{"compound": "Fc1ccc(Nc2ncnc3cnc(N4CCC(C5CCNCC5)CC4)nc23)cc1Cl", "IC50": "> 1"}
{"compound": "CN1CCC(CNc2ncc3ncnc(Nc4ccc(F)c(Cl)c4)c3n2)CC1", "IC50": "> 1"}
{"compound": "Fc1ccc(Nc2ncnc3cnc(N4CCC(N5CCCC5)CC4)nc23)cc1Cl", "IC50": 10}
{"compound": "OC1CCN(c2ncc3ncnc(Nc4ccc(F)c(Cl)c4)c3n2)CC1", "IC50": "> 1"}
{"compound": "O[C@H]1CC[C@H](Nc2ncc3ncnc(Nc4cccc(Oc5ccccc5)c4)c3n2)CC1", "IC50": "> 10"}
{"compound": "CC(C)(C)OC(=O)N1CCC(Nc2ncc3ncnc(Nc4ccc(F)c(Cl)c4)c3n2)CC1", "IC50": "> 10"}
{"compound": "CN1CCC(C2CCN(c3ncc4ncnc(Nc5ccc(F)c(Cl)c5)c4n3)CC2)CC1", "IC50": "> 1"}
{"compound": "O=C(N1CCOCC1)N1CCN(CCNc2ncc3ncnc(Nc4ccc(F)c(Cl)c4)c3n2)CC1", "IC50": "> 1"}
{"compound": "NCCCCNc1ncc2ncnc(Nc3ccc(F)c(Cl)c3)c2n1", "IC50": "> 10"}
{"compound": "CCN(CC)CC(C)Nc1ncc2ncnc(Nc3ccc(F)c(Cl)c3)c2n1", "note": "(stereo not drawn)", "IC50": "> 1"}
{"compound": "CC1CC(c2ccc(O)cc2)CN1c1ncc2ncnc(Nc3ccc(F)c(Cl)c3)c2n1", "note": "(stereo not drawn)", "IC50": "> 1"}
{"compound": "NCC1CCN(c2ncc3ncnc(Nc4ccc(F)c(Cl)c4)c3n2)CC1", "IC50": "> 1"}
{"compound": "CN1CCN(C2CCC(Nc3ncc4ncnc(Nc5ccc(F)c(Cl)c5)c4n3)CC2)CC1", "note": "(stereo not drawn)", "IC50": "> 1"}
{"compound": "Fc1ccc(Nc2ncnc3cnc(NCC45CCN(CC4)CC5)nc23)cc1Cl", "IC50": "> 1"}
{"compound": "Nc1ncc2ncnc(Nc3ccc(F)c(Cl)c3)c2n1", "IC50": "> 1"}
